According to ChEMBL document CHEMBL1201862, “PubChem BioAssay data set” (2004):
Where “and” joins values, the source holds several entries; their conditions need not be identical. Equal values may be shown once. Calls of active or inactive are those of the source. Cut-off read from the data, not from the text of the source, for most assays here: actives have a measured IC50 and inactives only a lower limit.

What was measured:
Type in all cases: functional
[1] = biological target: Protein disulfide-isomerase (Homo sapiens, UniProt P07237); experiment: inhibition of PDI-driven insulin aggregation – biochemical, turbidity, absorbance, cherry-picked samples, dose response (AID 602350)
[2] = biological target: T1, Sentrin-specific protease 8 (Homo sapiens, UniProt Q96LD8); experiment: inhibition of sentrin protease 8 – biochemical, luminescence, set 2, SAR follow-up (AID 588601)
T1 sequence (Q96LD8 whole entry): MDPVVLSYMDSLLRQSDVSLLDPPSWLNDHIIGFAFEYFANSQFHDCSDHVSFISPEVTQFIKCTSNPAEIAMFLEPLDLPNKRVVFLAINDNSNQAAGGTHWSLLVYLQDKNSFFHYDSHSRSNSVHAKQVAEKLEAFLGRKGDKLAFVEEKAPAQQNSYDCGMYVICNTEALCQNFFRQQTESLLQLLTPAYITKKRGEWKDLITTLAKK

[3] = biological target: T2, Caspase-3 (Homo sapiens, UniProt P42574); experiment: inhibition of recombinant caspase-3 activity – biochemical, luminescence, set 2, selectivity assay for SENP protease inhibitor project, SAR follow-up (AID 588599)
T2 sequence (P42574 whole entry): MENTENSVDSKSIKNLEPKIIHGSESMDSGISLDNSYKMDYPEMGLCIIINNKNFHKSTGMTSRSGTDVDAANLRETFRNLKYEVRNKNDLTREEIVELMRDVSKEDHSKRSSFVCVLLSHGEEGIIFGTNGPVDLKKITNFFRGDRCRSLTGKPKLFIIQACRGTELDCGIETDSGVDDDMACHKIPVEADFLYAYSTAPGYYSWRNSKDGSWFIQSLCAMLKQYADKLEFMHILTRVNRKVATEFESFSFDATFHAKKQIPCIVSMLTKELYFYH

[4] = biological target: T2, Caspase-3; experiment: SAR Analysis of small molecule inhibitors of Sentrin-specific proteases (SENPs) using a Caspase-3 Selectivity assay. [Related pubchem assays (depositor defined):AID2540, AID2599, AID434973, AID489001]
[5] = biological target: T3, Sentrin-specific protease 6 (Homo sapiens, UniProt Q9GZR1); experiment: inhibition of human SENP6 catalytic domain – biochemical, luminescence, set 2, SAR follow-up (AID 588598)
T3 sequence (Q9GZR1 whole entry): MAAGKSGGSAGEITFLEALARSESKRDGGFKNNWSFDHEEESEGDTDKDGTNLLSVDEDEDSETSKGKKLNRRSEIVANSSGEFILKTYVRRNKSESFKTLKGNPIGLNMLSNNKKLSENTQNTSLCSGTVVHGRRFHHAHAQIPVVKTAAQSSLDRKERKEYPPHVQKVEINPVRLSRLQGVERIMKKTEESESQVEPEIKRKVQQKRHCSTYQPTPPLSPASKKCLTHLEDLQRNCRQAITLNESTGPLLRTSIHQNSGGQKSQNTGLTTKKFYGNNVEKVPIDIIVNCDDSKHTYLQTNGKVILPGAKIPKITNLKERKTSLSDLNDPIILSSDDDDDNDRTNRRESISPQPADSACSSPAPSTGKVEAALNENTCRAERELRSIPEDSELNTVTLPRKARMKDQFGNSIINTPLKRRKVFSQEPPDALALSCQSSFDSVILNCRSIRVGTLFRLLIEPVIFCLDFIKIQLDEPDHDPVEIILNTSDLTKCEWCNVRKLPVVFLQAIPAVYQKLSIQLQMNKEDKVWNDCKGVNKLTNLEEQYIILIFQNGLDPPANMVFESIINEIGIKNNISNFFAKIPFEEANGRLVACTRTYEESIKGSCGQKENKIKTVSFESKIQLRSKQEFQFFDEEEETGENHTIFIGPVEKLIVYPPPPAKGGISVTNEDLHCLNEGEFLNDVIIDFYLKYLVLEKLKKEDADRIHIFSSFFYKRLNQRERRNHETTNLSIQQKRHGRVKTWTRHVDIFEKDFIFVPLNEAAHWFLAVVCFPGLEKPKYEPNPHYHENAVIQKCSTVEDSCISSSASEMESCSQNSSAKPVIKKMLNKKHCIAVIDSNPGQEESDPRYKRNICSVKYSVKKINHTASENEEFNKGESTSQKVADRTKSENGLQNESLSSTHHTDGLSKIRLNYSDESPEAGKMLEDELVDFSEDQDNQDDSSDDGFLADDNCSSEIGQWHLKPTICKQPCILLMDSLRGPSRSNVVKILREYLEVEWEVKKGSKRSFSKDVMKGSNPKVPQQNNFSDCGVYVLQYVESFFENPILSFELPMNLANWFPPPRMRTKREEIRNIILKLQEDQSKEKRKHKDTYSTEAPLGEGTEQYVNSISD

[6] = biological target: T4, Sentrin-specific protease 7 (Homo sapiens, UniProt Q9BQF6); experiment: inhibition of human SENP7 cleavage activity – biochemical, luminescence, set 2, SAR follow-up (AID 588600)
T4 sequence (Q9BQF6 whole entry): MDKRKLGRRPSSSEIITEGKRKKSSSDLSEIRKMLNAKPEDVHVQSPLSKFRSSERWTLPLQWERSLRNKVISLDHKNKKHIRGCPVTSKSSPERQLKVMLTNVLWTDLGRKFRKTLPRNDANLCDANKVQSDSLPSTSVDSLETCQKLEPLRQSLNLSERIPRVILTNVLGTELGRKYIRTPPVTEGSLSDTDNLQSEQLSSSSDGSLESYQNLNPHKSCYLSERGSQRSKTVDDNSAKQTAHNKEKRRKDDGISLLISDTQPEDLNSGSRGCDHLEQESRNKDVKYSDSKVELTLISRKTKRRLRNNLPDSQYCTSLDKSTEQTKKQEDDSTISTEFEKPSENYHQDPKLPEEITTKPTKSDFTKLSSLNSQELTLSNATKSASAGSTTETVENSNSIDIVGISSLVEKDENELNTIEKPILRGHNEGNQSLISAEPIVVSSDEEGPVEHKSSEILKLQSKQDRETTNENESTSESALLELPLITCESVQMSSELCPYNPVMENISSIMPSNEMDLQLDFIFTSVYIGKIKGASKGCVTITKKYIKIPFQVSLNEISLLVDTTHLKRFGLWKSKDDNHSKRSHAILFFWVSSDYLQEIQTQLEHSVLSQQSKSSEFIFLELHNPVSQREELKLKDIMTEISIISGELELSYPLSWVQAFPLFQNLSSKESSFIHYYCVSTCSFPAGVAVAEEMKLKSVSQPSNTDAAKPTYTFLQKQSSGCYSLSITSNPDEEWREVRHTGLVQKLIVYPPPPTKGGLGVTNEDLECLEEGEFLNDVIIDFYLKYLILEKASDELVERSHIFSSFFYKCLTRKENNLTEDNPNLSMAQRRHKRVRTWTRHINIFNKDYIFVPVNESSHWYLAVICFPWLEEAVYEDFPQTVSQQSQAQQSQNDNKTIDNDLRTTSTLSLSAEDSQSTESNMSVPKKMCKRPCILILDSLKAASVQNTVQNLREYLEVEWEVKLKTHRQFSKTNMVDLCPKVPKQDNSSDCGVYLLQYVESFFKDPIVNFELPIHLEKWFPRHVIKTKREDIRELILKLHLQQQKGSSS

[7] = biological target: T3, Sentrin-specific protease 6; experiment: SAR Analysis of small molecule inhibitors of Sentrin-specific protease 6 (SENP6) using a Luminescent assay. [Related pubchem assays (depositor defined):AID2582, AID2599]
[8] = biological target: T1, Sentrin-specific protease 8; experiment: inhibition of human SENP8 cleavage activity – biochemical, luminescence, SAR follow-up (AID 504501)
[9] = biological target: T4, Sentrin-specific protease 7; experiment: inhibition of human SENP7 cleavage activity – biochemical, luminescence, SAR follow-up (AID 504497)
[10] = biological target: Apoptotic protease-activating factor 1 (Homo sapiens, UniProt O14727); experiment: SAR analysis of small molecule Activators of Apaf-1 in a Fluorescent assay.; conditions: read-out: EC50_Mean;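 note: caspase-3 cleavage of fluorogenic Rh110 DEVD substrate downstream of apoptosome activation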
[11] = bead-based luminescence quenchers, dual-tagged ARNT – biochemical, AlphaScreen, cherry-pick, artefact control for ARNT-TACC3 interaction inhibitor project, dose response (AID 651705);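 note: AlphaScreen bead proximity signal that flags compounds interfering with the detection technology; potency reflects signal decrease which marks the compound as an assay artifact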

Sequence of Protein disulfide-isomerase (P07237 whole entry): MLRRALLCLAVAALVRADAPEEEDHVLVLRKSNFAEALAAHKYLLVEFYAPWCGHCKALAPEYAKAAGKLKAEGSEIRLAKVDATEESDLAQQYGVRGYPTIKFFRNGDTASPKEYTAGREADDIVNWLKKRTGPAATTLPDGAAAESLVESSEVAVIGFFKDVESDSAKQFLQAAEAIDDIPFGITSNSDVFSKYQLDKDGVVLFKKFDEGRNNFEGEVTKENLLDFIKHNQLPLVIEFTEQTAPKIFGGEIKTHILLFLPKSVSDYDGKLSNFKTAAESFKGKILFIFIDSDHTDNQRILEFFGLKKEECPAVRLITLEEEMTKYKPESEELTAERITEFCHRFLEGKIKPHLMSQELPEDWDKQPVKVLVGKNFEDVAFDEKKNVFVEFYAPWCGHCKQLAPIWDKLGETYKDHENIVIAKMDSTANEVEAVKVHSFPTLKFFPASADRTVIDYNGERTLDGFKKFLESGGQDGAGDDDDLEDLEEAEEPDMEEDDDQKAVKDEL
Sequence of Apoptotic protease-activating factor 1 (O14727 whole entry): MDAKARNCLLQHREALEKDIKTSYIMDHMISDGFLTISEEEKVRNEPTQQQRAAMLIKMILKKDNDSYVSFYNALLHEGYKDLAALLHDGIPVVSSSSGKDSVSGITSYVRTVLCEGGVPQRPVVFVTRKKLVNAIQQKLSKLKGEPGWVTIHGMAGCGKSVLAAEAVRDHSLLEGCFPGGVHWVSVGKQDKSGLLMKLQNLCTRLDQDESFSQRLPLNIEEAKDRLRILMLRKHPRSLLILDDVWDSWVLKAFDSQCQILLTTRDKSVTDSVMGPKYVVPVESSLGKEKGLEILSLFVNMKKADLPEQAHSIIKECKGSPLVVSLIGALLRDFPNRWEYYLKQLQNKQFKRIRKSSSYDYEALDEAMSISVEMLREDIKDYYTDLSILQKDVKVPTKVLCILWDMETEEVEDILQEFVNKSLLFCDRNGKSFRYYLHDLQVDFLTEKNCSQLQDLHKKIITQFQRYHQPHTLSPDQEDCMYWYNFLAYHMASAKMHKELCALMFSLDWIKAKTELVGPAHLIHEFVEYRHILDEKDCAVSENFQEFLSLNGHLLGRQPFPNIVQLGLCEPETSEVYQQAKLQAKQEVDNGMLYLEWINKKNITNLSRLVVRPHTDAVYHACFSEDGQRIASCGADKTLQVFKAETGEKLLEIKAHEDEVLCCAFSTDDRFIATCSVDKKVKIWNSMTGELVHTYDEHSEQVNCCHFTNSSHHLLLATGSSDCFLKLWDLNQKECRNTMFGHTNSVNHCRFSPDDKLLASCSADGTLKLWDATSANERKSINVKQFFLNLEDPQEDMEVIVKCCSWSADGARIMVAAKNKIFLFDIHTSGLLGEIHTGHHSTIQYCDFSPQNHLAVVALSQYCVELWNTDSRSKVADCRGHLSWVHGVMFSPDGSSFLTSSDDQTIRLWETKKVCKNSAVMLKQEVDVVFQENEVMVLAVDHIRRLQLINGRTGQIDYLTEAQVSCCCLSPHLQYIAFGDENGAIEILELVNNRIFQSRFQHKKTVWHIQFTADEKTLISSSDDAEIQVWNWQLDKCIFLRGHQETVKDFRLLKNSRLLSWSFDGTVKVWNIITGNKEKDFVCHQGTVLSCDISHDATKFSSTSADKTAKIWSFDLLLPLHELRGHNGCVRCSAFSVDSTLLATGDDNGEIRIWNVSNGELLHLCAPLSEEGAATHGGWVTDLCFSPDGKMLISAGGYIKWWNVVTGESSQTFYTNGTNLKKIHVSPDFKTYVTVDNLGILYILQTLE

Row | AC50 [1] | IC50 [3] | IC50 [5] | IC50 [6] | SMILES | IC50 [2] | further results
1 | 19.5 µM (active) and 7.04 µM (active) |  |  |  | C[C@@H]1CN([C@@H](C)CO)C(=O)c2cccc(NS(C)(=O)=O)c2O[C@H]1CN(C)Cc1ccc(Oc2ccccc2)cc1 |  | 
2 |  | > 99 µM (inactive) | 30.7 µM (active) | > 99 µM (inactive) | CCN(CC)c1ccc(/C=C/c2noc(-c3ccccc3O)n2)cc1 | > 99 µM (inactive) | IC50 [4]: 48 µM (active); IC50 [7]: 35 µM (active); IC50 [8]: 43 µM (active); IC50 [9]: 14 µM (active)
3 |  | > 99 µM (inactive) | > 99 µM (inactive) | > 99 µM (inactive) | CCOc1cc(/C=C(/C#N)c2nc(-c3ccc(C)cc3)no2)cc(Cl)c1O | > 99 µM (inactive) | 
4 | 19.5 µM (active) |  |  |  | C[C@H](CO)N1C[C@H](C)[C@H](CN(C)Cc2ccccc2)Oc2ccc(NC(=O)Nc3ccccc3)cc2CC1=O |  | 
5 |  |  |  |  | Cc1cc(C)n(C(C)CC(=O)Nc2cccnc2)n1 (stereo unspecified) |  | EC50 [10]: > 100 µM (inactive)
6 |  |  |  |  | CCCCCC/C=N/Nc1nnc(Cc2ccc(OC)c(OC)c2)c(O)n1 |  | AC50 [11]: 132 µM (active)
